Source: publication PMC8191290, “Substrate specificities and reaction kinetics of the yeast oligosaccharyltransferase isoforms” (The Journal of Biological Chemistry, 2021)

Molecular target: T1, OST3 complex (Saccharomyces cerevisiae, UniProt P39007)
T1 construct: were purified separately from strains expressing only one type of complex; made in house; host or cells: Saccharomyces cerevisiae, BY4742-derived strain ost6::LEU2MX6 OST4-1D4::kanMX6 YEp352-OST3
Assay: Synthetic LLO preferences, OST3 complex
Assay type: biochemical
Settings: OST3 complex 0.09 μM, 25 μM TAMRA-YANATS, 50 μM LLO; n = 3
Description: Figure 5 OST3 complex turns over both glycosylation substrates faster than the OST6 complex, but with similar substrate affinities.A, enzyme activity of OST3 and OST6 complexes. Reactions were performed with 25 μM peptide TAMRA-YANATS, 50 μM LLO C20, and varying concentrations of purified OST3 complex (blue) or OST6 complex (red). Glycopeptide product was measured by UPLC and initial rates of reaction were determined by linear regression of the initial phase of the reaction. Turnover rates were determined by linear regression of the initial rates of reaction measured across the enzyme concentrations of 0.01–0.1 μM for OST3 complex and 0.1–0.5 μM for OST6 complex. Error bars indicate standard deviations from the mean of three reaction sets (n = 3). B, synthetic LLO preferences of OST3 and OST6 complexes. […] Turnover rates were determined by linear regression of the initial phase of the reaction and accounting for the enzyme concentration in the reaction. […] C, quantification of kinetic parameters for the synthetic LLO C20. […] Turnover rates were determined by linear regression of the initial phase of the reaction and accounting for the enzyme concentration in the reaction. […] D, quantification of kinetic parameters for the peptide TAMRA-YANATS. […] Turnover rates were determined by linear regression of the initial phase of the reaction and accounting for the enzyme concentration in the reaction. […]

CC(=O)N[C@H]1[C@@H](OP(=O)(O)OP(=O)(O)OC/C=C(\C)CC/C=C(\C)CCC=C(C)C)O[C@H](CO)[C@@H](O[C@@H]2O[C@H](CO)[C@@H](O)[C@H](O)[C@H]2NC(C)=O)[C@@H]1O [LLO C15]
turnover rate ranking among LLO analogs: lowest reaction rates
